PubChem BioAssay AID1963871 (Molecular Pharmacology Branch, DTP, NCI, 2024)

Tested on: KRAS-mutant PDC multicell tumor spheroid viability
Assay: Anticancer human tumor 521955-158-R2-J5-PDC patient-derived pancreatic carcinoma cell line growth inhibition [KRAS2]
Settings: for IC50: curve of first compound; for viability, T/C: stronger effect = lower value
In short: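 Combination screen of spheroid viability in tumor-cell co-cultures with endothelial (HUVEC) and mesenchymal stem cell stroma. Each agent was tested in half-log dilutions, topping at clinical Cmax or at 10 microM without a known Cmax.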

[1] = second compound 0.1 µM, first compound 0.0316 µM
[2] = second compound 0.1 µM, first compound 0.1 µM
[3] = second compound 0.1 µM, first compound 0.316 µM
[4] = second compound 0.1 µM, first compound 1 µM
[5] = second compound 0.1 µM, first compound 3.16 µM
[6] = second compound 0.1 µM, first compound 10 µM
[7] = second compound 0.316 µM, first compound 0.0316 µM
[8] = second compound 0.316 µM, first compound 0.1 µM
[9] = second compound 0.316 µM, first compound 0.316 µM
[10] = second compound 0.316 µM, first compound 1 µM
[11] = second compound 0.316 µM, first compound 3.16 µM
[12] = second compound 0.316 µM, first compound 10 µM
[13] = second compound 1 µM, first compound 0.0316 µM
[14] = second compound 1 µM, first compound 0.1 µM
[15] = second compound 1 µM, first compound 0.316 µM
[16] = second compound 1 µM, first compound 1 µM
[17] = second compound 1 µM, first compound 3.16 µM
[18] = second compound 1 µM, first compound 10 µM
[19] = second compound 3.16 µM, first compound 0.0316 µM
[20] = second compound 3.16 µM, first compound 0.1 µM
[21] = second compound 3.16 µM, first compound 0.316 µM
[22] = second compound 3.16 µM, first compound 1 µM
[23] = second compound 3.16 µM, first compound 3.16 µM
[24] = second compound 3.16 µM, first compound 10 µM
[25] = second compound 10 µM, first compound 0.0316 µM
[26] = second compound 10 µM, first compound 0.1 µM
[27] = second compound 10 µM, first compound 0.316 µM
[28] = second compound 10 µM, first compound 1 µM
[29] = second compound 10 µM, first compound 3.16 µM
[30] = second compound 10 µM, first compound 10 µM
[31] = second compound 0.1 µM, first compound 0.000316 µM
[32] = second compound 0.1 µM, first compound 0.001 µM
[33] = second compound 0.1 µM, first compound 0.00316 µM
[34] = second compound 0.1 µM, first compound 0.01 µM
[35] = second compound 0.316 µM, first compound 0.000316 µM
[36] = second compound 0.316 µM, first compound 0.001 µM
[37] = second compound 0.316 µM, first compound 0.00316 µM
[38] = second compound 0.316 µM, first compound 0.01 µM
[39] = second compound 1 µM, first compound 0.000316 µM
[40] = second compound 1 µM, first compound 0.001 µM
[41] = second compound 1 µM, first compound 0.00316 µM
[42] = second compound 1 µM, first compound 0.01 µM
[43] = second compound 3.16 µM, first compound 0.000316 µM
[44] = second compound 3.16 µM, first compound 0.001 µM
[45] = second compound 3.16 µM, first compound 0.00316 µM
[46] = second compound 3.16 µM, first compound 0.01 µM
[47] = second compound 10 µM, first compound 0.000316 µM
[48] = second compound 10 µM, first compound 0.001 µM
[49] = second compound 10 µM, first compound 0.00316 µM
[50] = second compound 10 µM, first compound 0.01 µM
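Also: viability read after seven days of drug exposure.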

| SMILES | IC50 (second compound 0.1 µM) [nM] | IC50 (second compound 0.316 µM) [nM] | IC50 (second compound 1 µM) [nM] | IC50 (second compound 3.16 µM) [nM] | IC50 (second compound 10 µM) [nM] | viability, T/C [1] [%] | viability, T/C [2] [%] | viability, T/C [3] [%] | viability, T/C [4] [%] | viability, T/C [7] [%] | viability, T/C [8] [%] | viability, T/C [9] [%] | viability, T/C [10] [%] | viability, T/C [13] [%] | viability, T/C [14] [%] | viability, T/C [15] [%] | viability, T/C [19] [%] | viability, T/C [20] [%] | viability, T/C [25] [%] | viability, T/C [26] [%] | other results |
| --- | --- | --- | --- | --- | --- | --- | --- | --- | --- | --- | --- | --- | --- | --- | --- | --- | --- | --- | --- | --- | --- |
| CC(C)NCC(C(=O)N1CCN(c2ncnc3c2C(C)CC3O)CC1)c1ccc(Cl)cc1 (stereo not given) + COc1cc2nc(C)nc(NC(C)c3cc(N)cc(C(F)(F)F)c3)c2cc1OC1CCOC1 | > 10000 | > 10000 | > 10000 | > 10000 | 197 | 89.3 | 92.2 | 70.4 | 75.2 | 95.9 | 86 | 71.7 | 67.5 | 81.3 | 86.6 | 60.2 | 87.3 | 93.1 | 48.7 | 65.2 | viability, T/C [5]: 70.9%; viability, T/C [6]: 56.4%; viability, T/C [11]: 71%; viability, T/C [12]: 60.7%; viability, T/C [16]: 64.1%; viability, T/C [17]: 63.7%; viability, T/C [18]: 60.8%; viability, T/C [21]: 72.2%; viability, T/C [22]: 56.8%; viability, T/C [23]: 59.4%; viability, T/C [24]: 43.5%; viability, T/C [27]: 43%; viability, T/C [28]: 29.7%; viability, T/C [29]: 14.3%; viability, T/C [30]: 4.84% |
| CC(C)n1nc(-c2ccc3oc(N)nc3c2)c2c(N)ncnc21 + COc1cc2nc(C)nc(NC(C)c3cc(N)cc(C(F)(F)F)c3)c2cc1OC1CCOC1 | 9.15 | 7.73 | 6.55 | 4.41 | 0.453 | 32.6 | 26 | – | – | 33.7 | 25.6 | – | – | 29.6 | 25.1 | – | 27.4 | 20.2 | 21.6 | 19 | viability, T/C [31]: 61.5%; viability, T/C [32]: 83.8%; viability, T/C [33]: 64.1%; viability, T/C [34]: 48.5%; viability, T/C [35]: 90.1%; viability, T/C [36]: 83.9%; viability, T/C [37]: 65.4%; viability, T/C [38]: 44.8%; viability, T/C [39]: 81%; viability, T/C [40]: 77.1%; viability, T/C [41]: 57.1%; viability, T/C [42]: 46.8%; viability, T/C [43]: 84.2%; viability, T/C [44]: 80.6%; viability, T/C [45]: 53.7%; viability, T/C [46]: 35.8%; viability, T/C [47]: 56.9%; viability, T/C [48]: 32.4%; viability, T/C [49]: 34.7%; viability, T/C [50]: 26.1% |
| CC1(C)CCC(CN2CCN(c3ccc(C(=O)NS(=O)(=O)c4ccc(NCC5CCOCC5)c([N+](=O)[O-])c4)c(Oc4cnc5[nH]ccc5c4)c3)CC2)=C(c2ccc(Cl)cc2)C1 + COc1cc2nc(C)nc(NC(C)c3cc(N)cc(C(F)(F)F)c3)c2cc1OC1CCOC1 | 6340 | 5020 | 3650 | 2000 | 391 | 74.8 | 82.6 | 92.4 | 93.3 | 74.5 | 82.8 | 86 | 80.5 | 71.9 | 78.2 | 82.6 | 81 | 82.4 | 55.7 | 52.6 | viability, T/C [5]: 82.9%; viability, T/C [6]: 28.2%; viability, T/C [11]: 70.9%; viability, T/C [12]: 18.8%; viability, T/C [16]: 81.3%; viability, T/C [17]: 55.7%; viability, T/C [18]: 10.8%; viability, T/C [21]: 86.1%; viability, T/C [22]: 80%; viability, T/C [23]: 30.2%; viability, T/C [24]: 12.2%; viability, T/C [27]: 51.3%; viability, T/C [28]: 36.8%; viability, T/C [29]: 2.22%; viability, T/C [30]: 1.29% |
| CCN1CCN(Cc2ccc(Nc3ncc(F)c(-c4cc(F)c5nc(C)n(C(C)C)c5c4)n3)nc2)CC1 + COc1cc2nc(C)nc(NC(C)c3cc(N)cc(C(F)(F)F)c3)c2cc1OC1CCOC1 | > 1000 | > 1000 | > 1000 | > 1000 | 464 | 79.2 | 79.9 | 85.4 | 76.7 | 79.4 | 71.7 | 85.4 | 76 | 87.5 | 77.4 | 87.7 | 89.3 | 76.7 | 74.4 | 91 | viability, T/C [33]: 88.2%; viability, T/C [34]: 84.9%; viability, T/C [37]: 92%; viability, T/C [38]: 89.9%; viability, T/C [41]: 93.1%; viability, T/C [42]: 80.2%; viability, T/C [16]: 80.8%; viability, T/C [45]: 90.5%; viability, T/C [46]: 101%; viability, T/C [21]: 83.2%; viability, T/C [22]: 73%; viability, T/C [49]: 82.9%; viability, T/C [50]: 76%; viability, T/C [27]: 74.7%; viability, T/C [28]: 0.5% |
| CCNC(=O)CC1N=C(c2ccc(Cl)cc2)c2cc(OC)ccc2-n2c(C)nnc21 (stereo not given) + COc1cc2nc(C)nc(NC(C)c3cc(N)cc(C(F)(F)F)c3)c2cc1OC1CCOC1 | 405 | 293 | 333 | 320 | 418 | 90 | 79.5 | 52.6 | 36.7 | 104 | 89.9 | 47 | 30.8 | 89.2 | 85.2 | 50.1 | 98.5 | 87.7 | 105 | 96.5 | viability, T/C [5]: 32.4%; viability, T/C [6]: 26.9%; viability, T/C [11]: 30%; viability, T/C [12]: 26.6%; viability, T/C [16]: 34.2%; viability, T/C [17]: 28.2%; viability, T/C [18]: 28%; viability, T/C [21]: 48.4%; viability, T/C [22]: 39.6%; viability, T/C [23]: 28%; viability, T/C [24]: 30.8%; viability, T/C [27]: 49.9%; viability, T/C [28]: 33.4%; viability, T/C [29]: 18.6%; viability, T/C [30]: 8.29% |
| Cn1ncnc1[C@H]1c2n[nH]c(=O)c3cc(F)cc(c23)N[C@@H]1c1ccc(F)cc1 + COc1cc2nc(C)nc(NC(C)c3cc(N)cc(C(F)(F)F)c3)c2cc1OC1CCOC1 | > 100 | > 100 | > 100 | > 100 | > 100 | 70.3 | 66.2 | – | – | 67.4 | 65.2 | – | – | 69.3 | 71.1 | – | 77.8 | 70.3 | 57.6 | 55 | viability, T/C [31]: 80.6%; viability, T/C [32]: 78.6%; viability, T/C [33]: 85.2%; viability, T/C [34]: 67.1%; viability, T/C [35]: 81.2%; viability, T/C [36]: 90.5%; viability, T/C [37]: 85.3%; viability, T/C [38]: 63.2%; viability, T/C [39]: 86%; viability, T/C [40]: 88.1%; viability, T/C [41]: 84%; viability, T/C [42]: 75.1%; viability, T/C [43]: 94.2%; viability, T/C [44]: 94.6%; viability, T/C [45]: 88.7%; viability, T/C [46]: 81.2%; viability, T/C [47]: 84.7%; viability, T/C [48]: 70.5%; viability, T/C [49]: 75.3%; viability, T/C [50]: 67.9% |
